This note sets out measurements from ChEMBL document CHEMBL4613210, “Tacrines for Alzheimer's disease therapy. III. The PyridoTacrines” (Eur J Med Chem, 2019).

The target in experiment [1] is Voltage-gated calcium channel.
Description: Inhibition of VGCC (unknown origin)
Experiment [2] concerns the target Acetylcholinesterase (Electrophorus electricus, UniProt O42275).
Description: Inhibition of electric eel AChE
The target in experiment [3] is T1, Acetylcholinesterase (Bos taurus, UniProt P23795).
T1 sequence (P23795 whole entry): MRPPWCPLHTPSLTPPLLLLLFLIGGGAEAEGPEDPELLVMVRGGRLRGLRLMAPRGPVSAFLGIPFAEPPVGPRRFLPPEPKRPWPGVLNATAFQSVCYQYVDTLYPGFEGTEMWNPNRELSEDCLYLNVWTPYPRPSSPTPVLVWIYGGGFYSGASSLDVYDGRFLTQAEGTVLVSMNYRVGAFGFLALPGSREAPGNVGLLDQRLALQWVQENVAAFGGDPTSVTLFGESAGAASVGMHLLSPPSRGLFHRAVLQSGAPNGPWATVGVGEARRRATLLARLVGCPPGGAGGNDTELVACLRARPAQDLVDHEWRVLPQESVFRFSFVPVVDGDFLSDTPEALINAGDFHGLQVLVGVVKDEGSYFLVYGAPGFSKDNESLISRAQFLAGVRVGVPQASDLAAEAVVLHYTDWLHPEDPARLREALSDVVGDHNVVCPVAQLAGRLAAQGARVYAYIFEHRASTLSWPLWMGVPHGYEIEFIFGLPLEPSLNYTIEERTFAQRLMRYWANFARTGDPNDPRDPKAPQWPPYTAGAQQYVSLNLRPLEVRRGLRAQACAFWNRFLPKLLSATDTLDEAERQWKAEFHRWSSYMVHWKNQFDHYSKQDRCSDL
Nature of the experiment: Inhibition of bovine erythrocytes AChE using acetylthiocholine iodide as substrate by Ellman's methods.

In experiment [4] the target is T2, Cholinesterase (Homo sapiens, UniProt P06276).
Description: Inhibition of human serum BuChE using butyrylthiocholine iodide as substrate by Ellman's methods
Experiment [5] concerns the target T2, Cholinesterase. This is another data set of the same source.
Description: Inhibition of BuChE (unknown origin)
Experiment [6] concerns the target Acetylcholinesterase (Homo sapiens, UniProt P22303). The experiment can be described thus: Inhibition of human AChE.
The target in experiment [7] is T2, Cholinesterase. The experiment can be described thus: Inhibition of human BuChE.

Usually IC50 stands for the concentration that gives 50% inhibition.

Acetylcholinesterase (Electrophorus electricus, UniProt O42275), sequence (O42275 whole entry): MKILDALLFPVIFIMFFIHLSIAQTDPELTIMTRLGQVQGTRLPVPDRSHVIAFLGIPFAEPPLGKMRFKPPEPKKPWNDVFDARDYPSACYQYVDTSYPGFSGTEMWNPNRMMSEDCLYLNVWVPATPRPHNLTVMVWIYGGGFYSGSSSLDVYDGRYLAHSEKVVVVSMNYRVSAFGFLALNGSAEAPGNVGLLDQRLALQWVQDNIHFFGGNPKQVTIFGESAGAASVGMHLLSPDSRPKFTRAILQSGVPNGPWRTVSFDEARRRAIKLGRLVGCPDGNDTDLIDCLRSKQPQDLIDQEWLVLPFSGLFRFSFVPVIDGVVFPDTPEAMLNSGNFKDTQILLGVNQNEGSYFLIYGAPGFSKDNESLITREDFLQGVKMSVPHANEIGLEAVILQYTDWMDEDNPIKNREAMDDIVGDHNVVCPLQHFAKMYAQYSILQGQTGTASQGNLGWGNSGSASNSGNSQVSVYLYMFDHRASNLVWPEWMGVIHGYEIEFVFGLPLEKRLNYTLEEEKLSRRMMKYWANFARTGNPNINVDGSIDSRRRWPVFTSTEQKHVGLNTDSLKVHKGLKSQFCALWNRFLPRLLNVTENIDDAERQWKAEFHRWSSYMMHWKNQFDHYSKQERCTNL
T2 sequence (P06276 whole entry): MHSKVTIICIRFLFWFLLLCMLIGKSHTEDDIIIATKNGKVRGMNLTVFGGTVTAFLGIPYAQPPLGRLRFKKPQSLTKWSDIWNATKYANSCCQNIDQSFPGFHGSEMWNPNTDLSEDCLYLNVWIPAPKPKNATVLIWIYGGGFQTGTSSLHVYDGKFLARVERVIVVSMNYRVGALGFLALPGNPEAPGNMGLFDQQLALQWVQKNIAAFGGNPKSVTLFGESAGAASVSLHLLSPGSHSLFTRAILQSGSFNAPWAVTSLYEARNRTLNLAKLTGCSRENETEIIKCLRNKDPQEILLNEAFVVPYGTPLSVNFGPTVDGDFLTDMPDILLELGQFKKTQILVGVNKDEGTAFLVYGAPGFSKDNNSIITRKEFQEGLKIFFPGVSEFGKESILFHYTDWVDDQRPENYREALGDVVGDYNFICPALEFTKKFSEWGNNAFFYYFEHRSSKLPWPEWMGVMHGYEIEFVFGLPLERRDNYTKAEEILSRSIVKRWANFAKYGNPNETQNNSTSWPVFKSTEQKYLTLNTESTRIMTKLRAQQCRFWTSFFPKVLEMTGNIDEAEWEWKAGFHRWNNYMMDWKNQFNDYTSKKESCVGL
Acetylcholinesterase (Homo sapiens, UniProt P22303), sequence (P22303 whole entry): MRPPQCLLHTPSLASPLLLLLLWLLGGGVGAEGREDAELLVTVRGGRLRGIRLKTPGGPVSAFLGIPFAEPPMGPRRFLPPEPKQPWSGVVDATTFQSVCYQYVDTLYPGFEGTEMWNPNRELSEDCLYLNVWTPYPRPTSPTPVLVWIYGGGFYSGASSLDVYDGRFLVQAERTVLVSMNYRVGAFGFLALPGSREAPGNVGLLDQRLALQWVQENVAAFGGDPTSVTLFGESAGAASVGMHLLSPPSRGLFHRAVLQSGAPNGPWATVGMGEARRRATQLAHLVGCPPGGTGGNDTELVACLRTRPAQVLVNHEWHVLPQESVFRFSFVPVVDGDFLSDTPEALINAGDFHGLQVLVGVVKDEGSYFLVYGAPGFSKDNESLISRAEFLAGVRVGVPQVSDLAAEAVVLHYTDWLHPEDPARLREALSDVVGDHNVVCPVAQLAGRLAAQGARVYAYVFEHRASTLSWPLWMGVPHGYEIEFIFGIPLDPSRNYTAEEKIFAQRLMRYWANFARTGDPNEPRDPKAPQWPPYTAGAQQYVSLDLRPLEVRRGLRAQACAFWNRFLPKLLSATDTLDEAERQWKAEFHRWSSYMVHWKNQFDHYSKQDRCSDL

Regarding `CCOC(=O)c1c(C)nc2nc3c(c(N)c2c1-c1ccc(C)cc1)CCCCC3`, the half-maximal inhibitory concentration (IC50) in experiment [1] amounted to 24 µM; against Acetylcholinesterase [2], 13 µM.
In the case of `CCOC(=O)c1c(C)nc2nc3c(c(N)c2c1-c1ccccc1OC)CCCCC3`, the IC50 in experiment [1] is 17 µM; at Acetylcholinesterase [2], 22 µM.
In the case of `CCOC(=O)c1c(C)nc2nc3c(c(N)c2c1-c1ccc(Cl)cc1)CCCCC3`, the IC50 in experiment [1] turned out to be 27 µM; at Acetylcholinesterase [2] it was 19 µM.
For `CCOC(=O)c1c(C)nc2nc3c(c(N)c2c1-c1ccccc1)CCCCCC3`, the half-inhibitory concentration (IC50) in experiment [1] came to 10 µM; on Acetylcholinesterase [2], 17 µM.
The corresponding values for `CCOC(=O)c1c(C)nc2nc3c(c(N)c2c1-c1ccc(OC)cc1)CCCCCC3` are 20 µM and 17 µM.
With `CCOC(=O)c1c(C)nc2nc3c(c(N)c2c1-c1ccc(OC)cc1)CCCCC3`, the IC50 on Acetylcholinesterase [3] (read-out: IC50) was determined as 1.3 µM; at Cholinesterase [4] it was 80.6 µM.
`CCOC(=O)c1c(C)nc2nc3c(c(N)c2c1-c1ccc(OC)c(OC)c1)CCCC3`: the IC50 in experiment [1] is 26 µM; on Acetylcholinesterase [2], 1.3 µM.
In the case of `CCOC(=O)c1c(C)nc2nc3c(c(N)c2c1-c1ccc(F)cc1)CCCC3`, the IC50 stood at 38 µM in experiment [1], 12 µM at Cholinesterase [5] and 0.7 µM against Acetylcholinesterase [2].
Regarding `CCOC(=O)c1c(C)nc2nc3c(c(N)c2c1-c1ccc(F)cc1)CCCCC3`, the 50% inhibitory concentration (IC50) in experiment [1] was 17 µM; at Acetylcholinesterase [2], 5.4 µM.
On to `CCOC(=O)c1c(C)nc2nc3c(c(N)c2c1-c1ccc(Cl)cc1)CCCC3`, for which the figures for the IC50 (in experiment [1]; against Cholinesterase [5]; against Acetylcholinesterase [2]) were 34 µM, 52 µM and 1.3 µM, respectively.
Regarding `CCOC(=O)c1c(C)nc2nc3c(c(N)c2c1-c1ccc(OC)c(OC)c1)CCCCC3`, the half-inhibitory concentration (IC50) was 9 µM in experiment [1] and 6.4 µM against Acetylcholinesterase [2].
Turning to `Cc1nc2nc3c(c(N)c2c(-c2ccccc2)c1C(=O)OC(C)C)CCCC3`, the IC50 in experiment [1] stood at 10 µM; against Cholinesterase [5], 12 µM; against Acetylcholinesterase [2] it was 1.2 µM.
Regarding `CCOC(=O)c1c(C)nc2nc3c(c(N)c2c1-c1ccccc1)CCCC3`, the IC50 was determined as 0.82 µM at Acetylcholinesterase [3], 5 µM against Cholinesterase [4], 20 µM in experiment [1] and 5 µM on Cholinesterase [5].
The compound `CCOC(=O)c1c(C)nc2nc3c(c(N)c2c1-c1ccccc1)CCCCC3` showed an IC50 against Acetylcholinesterase [3] of 21 µM.
As to `CCOC(=O)c1c(C)nc2nc3c(c(N)c2c1-c1ccc(OC)cc1)CCCC3`, at Acetylcholinesterase [3], half-maximal inhibition (IC50) was put at 9 µM.
For `CCOC(=O)c1c(C)nc2nc3c(c(N)c2c1-c1ccccc1)CCC3`, the IC50 against Acetylcholinesterase [3] was found to be 11.9 µM.
In the case of `CCOC(=O)c1c(C)nc2nc3c(c(N)c2c1-c1ccc(OC)cc1)CCC3`, the concentration for half-maximal inhibition (IC50) on Acetylcholinesterase [3] (read-out: IC50) was determined as 14 µM.
In the case of `CCOC(=O)c1c(C)nc2nc3c(c(N)c2c1-c1cccc(OC)c1)CCCC3`, the IC50 in experiment [1] was determined as 15 µM; on Cholinesterase [5] it was 31 µM; on Acetylcholinesterase [2] it was 1.2 µM.
In the case of `CCOC(=O)c1c(C)nc2nc3c(c(N)c2c1-c1cccc([N+](=O)[O-])c1)CCCC3`, the IC50 in experiment [1] was 18 µM; against Cholinesterase [5], 21 µM; against Acetylcholinesterase [2], 0.9 µM.
Turning to `CCOC(=O)c1c(C)nc2nc3c(c(N)c2c1-c1ccc([N+](=O)[O-])cc1)CCCCC3`, the IC50 stood at 13 µM in experiment [1] and 14 µM on Acetylcholinesterase [2].
Turning to `CCOC(=O)c1c(C)nc2nc3c(c(N)c2c1-c1cccc(OC)c1)CCCCC3`, the IC50 in experiment [1] was 9 µM.
Compound `COc1ccc(C2c3c(nc4c(c3N)CCCC4)Oc3ccc4ccccc4c32)cc1OC` (racemic) gave a half-maximal inhibitory concentration (IC50) on Acetylcholinesterase [6] of 0.083 µM.
In the case of `COc1cc(C2c3ccc(O)cc3Oc3nc4c(c(N)c32)CCCC4)cc(OC)c1OC` (racemic), the half-maximal inhibitory concentration (IC50) at Acetylcholinesterase [3] (read-out: IC50) came out at 0.041 µM.
For `CCOC(=O)C1=C(C)Oc2nc3c(c(N)c2C1c1ccc(OC)cc1)CCCC3` (racemic), the 50% inhibitory concentration (IC50) came out at 0.87 µM at Acetylcholinesterase [3] (read-out: IC50), 6.2 µM against Cholinesterase [4] and 6.2 µM on Cholinesterase [7].
